Experimental data taken from patent publication US20230159989A1, “MULTIPLEXED FLUORESCENCE IN SITU HYBRIDIZATION METHOD CAPABLE OF RAPID DETECTION OF BILLIONS OF TARGETS” (Kanvas Biosciences, Inc., priority 2021, published 2023).

Test system: carbapenem-resistant K. pneumoniae
Assay: HiPR-FISH chip antimicrobial susceptibility / MIC by growth imaging at several meropenem concentrations
Type: cell-based
Conditions: Klebsiella pneumoniae, several hours growth on a HiPR-FISH chip, in agreement with Clinical and Laboratory Standards Institute criteria, read-out: meropenem concentration beyond which the strain still grows (* denotes MIC)

C[C@@H](O)[C@H]1C(=O)N2C(C(=O)O)=C(S[C@@H]3CN[C@H](C(=O)N(C)C)C3)[C@H](C)[C@H]12 [meropenem]
MIC: > 2 µg/mL
